{"source": "patent US20060134217A1", "about": "“Leukotriene and integrin inhibitor combination and treatment method” (priority 2004, published 2006)", "key": {"[1]": {"molecular_target": "T1, α4/β7 to MadCAM-1 (Homo sapiens, UniProt P13612+P26010)", "T1 sequence (P13612 34-1032)": "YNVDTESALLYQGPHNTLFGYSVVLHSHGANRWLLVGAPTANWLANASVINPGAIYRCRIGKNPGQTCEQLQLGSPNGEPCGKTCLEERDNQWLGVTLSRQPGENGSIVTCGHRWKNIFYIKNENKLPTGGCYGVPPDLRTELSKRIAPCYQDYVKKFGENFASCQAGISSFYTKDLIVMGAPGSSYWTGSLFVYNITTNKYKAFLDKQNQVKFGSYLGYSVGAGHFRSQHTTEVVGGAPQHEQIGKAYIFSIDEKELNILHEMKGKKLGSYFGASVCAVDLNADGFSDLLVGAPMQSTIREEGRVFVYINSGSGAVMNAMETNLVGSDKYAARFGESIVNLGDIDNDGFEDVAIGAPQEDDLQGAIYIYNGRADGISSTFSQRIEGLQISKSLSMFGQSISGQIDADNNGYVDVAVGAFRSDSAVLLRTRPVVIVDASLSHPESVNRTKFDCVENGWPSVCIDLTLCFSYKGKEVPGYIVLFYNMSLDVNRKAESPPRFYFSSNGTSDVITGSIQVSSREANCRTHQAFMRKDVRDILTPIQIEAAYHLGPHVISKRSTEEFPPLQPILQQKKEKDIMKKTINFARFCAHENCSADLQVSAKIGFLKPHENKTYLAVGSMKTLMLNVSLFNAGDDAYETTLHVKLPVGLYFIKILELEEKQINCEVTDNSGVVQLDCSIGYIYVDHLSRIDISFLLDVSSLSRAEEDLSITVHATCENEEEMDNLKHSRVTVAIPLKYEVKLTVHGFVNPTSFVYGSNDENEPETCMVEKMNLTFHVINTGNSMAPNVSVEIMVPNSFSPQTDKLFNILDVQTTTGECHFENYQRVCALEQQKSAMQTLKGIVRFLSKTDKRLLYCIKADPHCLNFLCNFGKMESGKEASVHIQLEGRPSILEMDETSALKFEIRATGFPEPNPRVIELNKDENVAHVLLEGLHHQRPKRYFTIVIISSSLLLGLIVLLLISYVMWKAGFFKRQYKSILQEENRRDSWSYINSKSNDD", "T1 sequence (P26010 20-798)": "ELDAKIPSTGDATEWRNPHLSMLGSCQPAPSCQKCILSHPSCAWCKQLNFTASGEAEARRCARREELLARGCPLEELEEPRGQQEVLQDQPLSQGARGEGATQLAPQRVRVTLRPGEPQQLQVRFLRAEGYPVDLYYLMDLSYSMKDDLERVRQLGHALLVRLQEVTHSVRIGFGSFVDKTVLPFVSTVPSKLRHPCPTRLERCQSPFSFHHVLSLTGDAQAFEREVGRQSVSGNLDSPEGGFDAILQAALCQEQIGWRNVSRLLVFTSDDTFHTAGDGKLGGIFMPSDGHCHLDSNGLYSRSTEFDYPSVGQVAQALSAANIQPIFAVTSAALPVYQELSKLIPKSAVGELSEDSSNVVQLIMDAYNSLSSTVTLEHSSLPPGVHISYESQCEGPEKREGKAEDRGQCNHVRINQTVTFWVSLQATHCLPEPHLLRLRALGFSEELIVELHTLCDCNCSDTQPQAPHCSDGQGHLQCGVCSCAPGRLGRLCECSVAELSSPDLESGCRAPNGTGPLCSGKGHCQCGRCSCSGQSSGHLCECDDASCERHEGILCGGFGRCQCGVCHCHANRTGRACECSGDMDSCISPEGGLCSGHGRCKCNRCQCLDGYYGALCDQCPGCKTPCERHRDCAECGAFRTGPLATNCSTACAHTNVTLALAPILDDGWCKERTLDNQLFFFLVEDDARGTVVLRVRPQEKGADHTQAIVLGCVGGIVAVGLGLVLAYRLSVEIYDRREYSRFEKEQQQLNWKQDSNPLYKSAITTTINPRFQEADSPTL", "assay": "Inhibition of α4/β7 binding to MadCAM-1", "excerpt": "(§1) R411 inhibits the binding of α4/β1 to vascular cell adhesion molecule (VCAM-1) and α4/β7 to MadCAM-1 by […]. R411 is disclosed in U.S. Pat. No. 6,229,011, which disclosure is incorporated by reference herein."}, "[2]": {"excerpt": "The pharmaceutical dosage forms may also be formulated to provide a chronobiological synergy of the two compounds."}, "[3]": {"molecular_target": "α4/β1 to vascular cell adhesion molecule (VCAM-1) (Homo sapiens, UniProt P05556+P13612)", "sequence (P05556 21-798, one chain of several)": "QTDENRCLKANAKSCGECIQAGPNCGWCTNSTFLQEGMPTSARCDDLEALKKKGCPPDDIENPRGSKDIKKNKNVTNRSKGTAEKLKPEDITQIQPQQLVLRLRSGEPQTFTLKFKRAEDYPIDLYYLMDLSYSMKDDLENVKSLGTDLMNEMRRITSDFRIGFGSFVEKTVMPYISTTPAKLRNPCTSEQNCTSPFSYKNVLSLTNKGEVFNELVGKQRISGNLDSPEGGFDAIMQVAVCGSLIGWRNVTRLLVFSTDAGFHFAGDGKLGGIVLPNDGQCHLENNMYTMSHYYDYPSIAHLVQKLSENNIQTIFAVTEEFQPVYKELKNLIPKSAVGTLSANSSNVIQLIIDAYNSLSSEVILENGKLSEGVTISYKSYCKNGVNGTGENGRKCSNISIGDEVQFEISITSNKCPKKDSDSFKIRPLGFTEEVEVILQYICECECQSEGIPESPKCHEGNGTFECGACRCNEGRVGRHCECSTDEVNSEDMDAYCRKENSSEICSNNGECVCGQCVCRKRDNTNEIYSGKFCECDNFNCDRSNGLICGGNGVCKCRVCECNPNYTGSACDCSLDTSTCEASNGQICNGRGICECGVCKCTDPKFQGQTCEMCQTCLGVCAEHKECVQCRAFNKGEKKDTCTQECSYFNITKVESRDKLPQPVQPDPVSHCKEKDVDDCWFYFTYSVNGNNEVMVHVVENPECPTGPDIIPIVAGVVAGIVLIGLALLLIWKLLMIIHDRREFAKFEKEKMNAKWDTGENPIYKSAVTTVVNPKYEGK", "assay": "Inhibition of α4/β1 binding to VCAM-1", "excerpt": "as §1"}, "[4]": {"system": "mild/moderate asthmatics not treated with inhaled corticosteroids", "assay": "ARES study: R411 monotherapy, 12 week treatment period", "format": "in vivo, human", "details": "for % Asthma exacerbation / Asthma control Questionnaire (Total Score), change from baseline / Morning asthma symptoms, change from baseline / Nocturnal awakenings (scores), change from baseline / Rescue β 2-agonist use (puffs/d), change from baseline: 12 weeks, ITT population", "protocol": "The ARES study illustrated in FIG. 4 was designed to evaluate the safety and efficacy of monotherapy R411 over a 12 week treatment period in 480 mild/moderate asthmatics not treated with inhaled corticosteroids. Patients were randomized to one of four cohorts: 50, 200, 600 mg QD R411, or placebo (n=120/group). The primary endpoint in the study was change in FEV1 from baseline, and secondary endpoints included PEFR, asthma exacerbations, β2-agonist use, asthma control questionnaire, asthma symptom scores, and nocturnal awakenings.\nARES study evaluated the safety and efficacy of monotherapy with R411 over a 12-week treatment period in 479 mild/moderate asthmatics not treated with inhaled corticosteroids. Patients were randomized to one of four cohorts: 50, 200, 600 mg once daily R411, or placebo."}, "[5]": {"system": "atopic primate", "assay": "Airway inflammation in the atopic primate, oral R411", "format": "in vivo", "details": "oral administration, FIG. 6"}, "[6]": {"molecular_target": "T2, α4 (Homo sapiens, UniProt P13612)", "T2 sequence (P13612 34-1032)": "T1 sequence (P13612 34-1032)", "assay": "In vitro binding to α4 integrin"}, "[7]": {"system": "persistent asthmatics on low to medium inhaled corticosteroids", "assay": "Phase II add-on of R411 to inhaled corticosteroids (MARS study)", "format": "in vivo, human", "details": "added to moderate dose inhaled corticosteroids, subpopulation with less well controlled asthma", "excerpt": "As set out above, a second component in the solid pharmaceutical dosage form comprises a therapeutically effective amount of R411 (N-(2-chloro-6-methylbenzoyl)-4-[(2,6-dichlorobenzoyl)amino]-L-phenylalanine-2-(diethylamino)ethyl ester), or a pharmaceutically acceptable salt thereof. […] The MARS study illustrated in FIG. 3 was designed to evaluate the safety and efficacy of R411 over a 12 week treatment period in 350 persistent asthmatics being treated with a stable dose of low to medium inhaled corticosteroids and inhaled short acting […]. Patients were randomized to one of five cohorts: 50, 200, 600 mg once daily (QD) or 300 mg twice daily (BID) R411, or placebo (n=70/group). After a 2-week placebo run-in period and subsequent 2-week add-on period (R411 or placebo), morning inhaled corticosteroids were removed. Two weeks later, evening inhaled corticosteroids were removed, and patients remained in the treatment period for an additional 8 weeks. The primary endpoint in the study was the percentage change in FEV1 from baseline, and secondary endpoint included PEFR, asthma exacerbations, β2-agonist use, asthma control questionnaire, asthma symptom scores, nocturnal awakenings, FEF25-75 and rate of asthma treatment failures."}, "[8]": {"system": "α4/β1 and α4/β7 integrins", "assay": "Integrin selectivity"}, "[9]": {"system": "key inflammatory cells", "assay": "Migration of inflammatory cells from blood into lungs", "details": "in vivo"}, "[10]": {"system": "stable asthmatic adults maintained on inhaled corticosteroids", "details": "cited from earlier work"}, "[11]": {"system": "mild and moderate asthmatics", "details": "cited from earlier work"}, "[12]": {"details": "50, 200, 600 mg once daily vs placebo"}}, "note": "Marks after values point to notes of the source that are not given here.", "data": [{"smiles": "CCN(CC)CCOC(=O)[C@H](Cc1ccc(NC(=O)c2c(Cl)cccc2Cl)cc1)NC(=O)c1c(C)cccc1Cl", "note": "[R411, N-(2-Chloro-6-methylbenzoyl)-4-[(2,6-dichlorobenzoyl)amino]-L-phenylalanine-2-(diethylamino)ethyl ester]", "values": [{"measurement": "inhibition of binding of α4/β7 to MadCAM-1", "setting": "[1]", "value": "inhibits"}, {"measurement": "acid/base character", "setting": "[2]", "value": "weak base"}, {"measurement": "solubility along the gastrointestinal tract", "setting": "[2]", "value": "higher solubility in the upper part of the gastrointestinal tract"}, {"measurement": "inhibition of binding of α4/β1 to VCAM-1", "setting": "[3]", "value": "inhibits"}, {"measurement": "% Asthma exacerbation", "setting": "[4]; 200 mg once daily", "value": 25.6, "unit": "%"}, {"measurement": "Asthma control Questionnaire (Total Score), change from baseline", "setting": "[4]; 200 mg once daily", "value": "−0.29 [2.08]"}, {"measurement": "Morning asthma symptoms, change from baseline", "setting": "[4]; 200 mg once daily", "value": "−0.34* [1.55]"}, {"measurement": "Nocturnal awakenings (scores), change from baseline", "setting": "[4]; 200 mg once daily", "value": "−0.15*/[0.61] scores"}, {"measurement": "Rescue β 2-agonist use (puffs/d), change from baseline", "setting": "[4]; 200 mg once daily", "value": "−0.36/[3.04] puffs/d"}, {"measurement": "% Asthma exacerbation", "setting": "[4]; 600 mg once daily", "value": 26.10, "unit": "%"}, {"measurement": "Asthma control Questionnaire (Total Score), change from baseline", "setting": "[4]; 600 mg once daily", "value": "−0.23 [2.00]"}, {"measurement": "Morning asthma symptoms, change from baseline", "setting": "[4]; 600 mg once daily", "value": "−0.33* [1.57]"}, {"measurement": "Nocturnal awakenings (scores), change from baseline", "setting": "[4]; 600 mg once daily", "value": "−0.12*/[0.58] scores"}, {"measurement": "Rescue β 2-agonist use (puffs/d), change from baseline", "setting": "[4]; 600 mg once daily", "value": "−0.41*/[3.11] puffs/d"}, {"measurement": "decrease in daytime asthma and nocturnal symptom score", "setting": "[4]; [12]", "value": "Statistically significant improvements"}, {"measurement": "reducing rescue albuterol use", "setting": "[4]; [12]", "value": "Statistically significant improvements"}, {"measurement": "Asthma Control Questionnaire Scores and Asthma Quality-of-Life", "setting": "[4]; compared to placebo", "value": "Improvement"}, {"measurement": "small airway flow rates as measured by FEF25-75", "setting": "[4]; monotherapy, FIG. 4", "value": "significant effect"}, {"measurement": "reduction in asthma exacerbations", "setting": "[4]; two highest doses of 200 and 600 mg", "value": 26, "unit": "%"}, {"measurement": "airway inflammation", "setting": "[5]", "value": "attenuates airway inflammation"}, {"measurement": "binding affinity", "setting": "[6]; activated α4", "value": "high affinity"}, {"measurement": "dissociation", "setting": "[6]; activated α4", "value": "slow dissociation"}, {"measurement": "dissociation", "setting": "[6]; receptor not activated", "value": "more rapid"}, {"measurement": "in vitro binding affinity", "setting": "[6]; receptor not activated", "value": "lower"}, {"measurement": "large airway flow rates as measured by FEV1", "setting": "[7]; FIG. 2", "value": "additive effect"}, {"measurement": "small airway flow rates measured by FEF25-75", "setting": "[7]; FIG. 3", "value": "additive effect"}, {"measurement": "integrin selectivity", "setting": "[8]", "value": "effective against both α4/β1 and α4/β7 integrins"}, {"measurement": "migration of key inflammatory cells from the blood into the lungs", "setting": "[9]", "value": "block the migration"}]}, {"smiles": "CC(C)(O)c1ccccc1CC[C@@H](SCC1(CC(=O)[O-])CC1)c1cccc(/C=C/c2ccc3ccc(Cl)cc3n2)c1.[Na+]", "note": "[montelukast, [R-(E)]-1-[[[1-[3-[2-(7-chloro-2-quinolinyl)ethenyl]phenyl]-3-[2-(1-hydroxy-1-methylethyl)phenyl]propyl]thio]methyl]cyclopropaneacetic acid, monosodium salt]", "values": [{"measurement": "reduction in mean inhaled corticosteroid dose", "setting": "[10]; 12-week active treatment period, placebo 30%", "value": 47, "unit": "%"}, {"measurement": "patients successfully tapered off inhaled corticosteroids", "setting": "[10]; at conclusion of study, placebo 29%, p=NS", "value": "Approximately 40%"}, {"measurement": "reduction of \"as-needed\" (beta)-agonist use from baseline", "setting": "[11]; adult patients, placebo 4.6%", "value": 26.1, "unit": "%"}, {"measurement": "reduction of nocturnal awakenings from baseline", "setting": "[11]; patients with nocturnal awakenings of at least 2 nights per week, combined analysis, placebo 15%", "value": 34, "unit": "%"}]}]}
